Laboratory results taken from paper PMC6182421, “De novo coiled-coil peptides as scaffolds for disrupting protein–protein interactions” (Chemical Science, 2018).

What was measured:
hDM2/Flu-p53 = type: binding; conditions: read-out: IC50, inhibition of Flu-p53/hDM2 (positive control)
MCL-1/FITC-BID = molecular target: T1, MCL-1/FITC-BID (Homo sapiens, UniProt Q07820); experiment: Fluorescence anisotropy competition assay, MCL-1/FITC-BID; type: binding; conditions: for Displacement of FITC-BID from MCL-1 (in words) / IC50 MCL-1/BID: 150 nM MCL-1, 25 nM FITC-BID; for IC50 MCL-1/BID: Table 2, 21 °C, Tris buffer pH 7.4 + 0.01% Triton-X-100, 20-21 h incubation, triplicate
T1 construct: made in house

[1] = Circular dichroism spectroscopy and thermal denaturation; type: physicochemical; conditions: for TM (midpoint of thermal denaturation): MRE222 monitored 5 to 90 °C at 40 °C h^–1, PBS pH 7.4, 50 μM of each peptide; for % helicity: from MRE222, 20 °C, calculation per ref 68
Text: (A & B) CC-Di (pale green), CC-Di_S (lime), CC-Di_E1 (green), CC-Di_E2 (olive). (C & D) CC-Di-A (pink), CC-Di-B (cyan), CC-Di-A : CC-Di-B mixture (purple). (E & F) CC-Di-A_S (red), CC-Di-B (cyan), CC-Di-A_S : CC-Di-B mixture (brown). (G & H) CC-Di-A (pink), CC-Di-B_S (blue), CC-Di-A : CC-Di-B_S mixture (indigo). For heteromeric assemblies (i.e. Panels C–H) the theoretical spectra expected should the pairs of peptides not interact are depicted by grey dashes. Conditions: all experiments were performed in phosphate-buffered saline (PBS; pH 7.4) at 50 μM concentration of each peptide. Equilibrium CD spectra were recorded at 20 °C.
CD spectra were collected using a JASCO J810 spectropolarimeter coupled to a Peltier temperature controller. Peptide-containing solutions were freshly prepared in PBS (pH 7.4) with concentrations calculated from UV absorption at 280 nm (ε(Tyr) = […]).[78] Samples were examined at 50 μM concentration for lone peptides and 50 + 50 μM for two peptide heterodimeric examples, in a 1 mm quartz cuvette. […] Thermal denaturation experiments were conducted by ramping temperature from 5 to 90 °C at 40 °C h^–1. Full spectra (260–190 nm, 5 scans) were recorded at 5 °C and 20 °C, while the CD signal at 222 nm was recorded across the full temperature range at 1 °C intervals (1 nm interval, 1 nm bandwidth, 16 s response time).

[2] = Sedimentation-equilibrium analytical ultracentrifugation; type: physicochemical; conditions: AUC, relative to monomer molecular mass, 20 °C, PBS, 50 μM of each peptide
Description: Sedimentation equilibrium experiments were prepared in PBS (137 mM NaCl, 2.7 mM KCl, 8.2 mM Na2HPO4 and 1.8 mM KH2PO4) at 50 μM peptide concentration for homomeric assemblies and 50 μM peptide concentration of both peptides for heteromeric assemblies and to 120 μL. The reference channel was loaded with 130 μL of PBS solution. Equilibrium distributions were measured twice per speed, in 4 krpm increments, and with rotor speeds from 40 to 60 krpm. Data were fitted to single ideal species models using Ultrascan II (; http://www.ultrascan.uthscsa.edu). […] 95% confidence limits were obtained by Monte Carlo analysis of the fits. The partial specific volume for each of the peptides and the buffer density were calculated using Ultrascan II.
Beckman Proteomelab XL -I analytical ultracentrifuge u sing an An -60 Ti rotor and 2-channel centrepiec es.
Sedimentation equilibrium experiments were made up in PBS (137 mM NaCl, 2.7 mM KCl, 8.2 mM
Na2HP O4 and 1.8 mM KH2PO4) at 50 µM peptide concentration for homomeric assemblies and 50 µM
peptide concentration of both peptides for heteromeric assemblies and to 120 µL. The referenc e channel
was loaded with 130 µL of PBS solution. Equilibrium distributions were measured twice per speed, in 4
krpm increments, and with rotor speeds from 40 to 60 krpm. Data were fitted to single ideal species models […]
were calculated using Ultrascan II.

BCL-xL/FITC-BID = molecular target: T2, BCL-xL/FITC-BID (Homo sapiens, UniProt Q07817, DEL27-82); experiment: Fluorescence anisotropy competition assay, BCL-xL/FITC-BID; type: binding; conditions: competition titration, 20-21 h incubation
T2 construct: made in house

[3] = PBS pH 7.4, 50 μM of each peptide

T1 sequence (Q07820 173-327 limits assumed): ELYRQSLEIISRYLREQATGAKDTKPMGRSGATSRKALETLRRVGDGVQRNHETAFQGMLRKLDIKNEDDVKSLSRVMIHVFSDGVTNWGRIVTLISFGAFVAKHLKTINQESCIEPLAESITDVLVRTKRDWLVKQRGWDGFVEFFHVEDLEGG
T2 sequence (Q07817 with tags, fused parts or gaps DEL27-82 limits assumed, species assumed): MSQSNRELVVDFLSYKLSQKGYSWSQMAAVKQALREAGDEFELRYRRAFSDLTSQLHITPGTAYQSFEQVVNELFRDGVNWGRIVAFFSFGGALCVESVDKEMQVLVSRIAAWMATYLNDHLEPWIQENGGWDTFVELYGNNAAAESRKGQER

| Compound | Displacement of FITC-BID from MCL-1 (in words) (MCL-1/FITC-BID) | IC50 MCL-1/BID (MCL-1/FITC-BID) | TM (midpoint of thermal denaturation) [1] | % helicity [1, 3] | other results |
| --- | --- | --- | --- | --- | --- |
| COc1ccc(C2=N[C@@H](c3ccc(Cl)cc3)[C@@H](c3ccc(Cl)cc3)N2C(=O)N2CCNC(=O)C2)c(OC(C)C)c1 [Nutlin-3a] |  |  |  |  | IC50 (hDM2/Flu-p53): 273 ± 41 nM |
| Ac-G KIAALKQ KIAALKK KNAALKQ KIAALKQ GYG-NH [CC-Di-B, basic peptide of the obligate heterodimer CC-Di-AB] | neither of the free peptides, CC-Di-B or CC-Di-B_S, competed with FITC-BID | No response | 38 °C | 71% |  |
| Ac-G KIAALKQ KILRLIG DNVALKQ KIAALKQ GYG-NH [CC-Di-B_S, basic peptide with the short motif graft that should partner peptide CC-Di-A] | neither of the free peptides, CC-Di-B or CC-Di-B_S, competed with FITC-BID | No response | 27 °C | 46% |  |
| Ac-GEILALKQEILRLIGDNVALKQEILNLKQGYG-NH2 [CC-Di_E1] |  |  |  |  | IC50 (MCL-1/FITC-BID): 700 ± 50 nM |
| Ac-G EIAALKQ EIAALKK ENAALKQ EIAALKQ GYG-NH [CC-Di, de novo designed homodimeric coiled-coil peptide, unmodified scaffold] | did not displace FITC-BID | No response | 75 °C | 90% | Oligomer state [2]: 1.96 |
| Ac-G EIAALEQ EIAALEK ENAALEQ EIAALEQ GYG-NH [CC-Di-A, acidic peptide of the obligate heterodimer CC-Di-AB] | does not bind MCL-1 | No response | NA (<0) °C | 19% | MRE222 ([1]; CD at 222 nm, 20 °C, PBS pH 7.4, 50 μM of each peptide): –6577 deg cm^2 dmol res^–1 |
| Ac-GEIAALKQEILRLIGDNVALKQEIAALKQGYG-NH2 [CC-Di_S] |  |  |  |  | Inhibition of BCL-xL/FITC-BID (in words) (BCL-xL/FITC-BID): inconclusive |
